Experimental data published in patent US8101780B2, “Crystalline form of 3-(difluormethyl)-1-methyl-N-(3′,4′,5′-trifluor[1,1′-biphenyl]-2-yl)-1H-pyrazol-4-carboxamide” (BASF SE, priority 2007, dated 2012).

Experiments:
Type in all cases: physicochemical
[1] = Slurry examples: forms suspended in water at 30° C., stirred, XRD analysis; conditions: magnetic stirrer
Experimental: Slurry Examples Proving the Stability of Form B:
The form in question or mixtures of different forms of 3-(difluoromethyl)-1-methyl-N-(3′,4′,5′-trifluoro[1,1′-biphenyl]-2-yl)-1H-pyrazole-4-carboxamide were suspended in water at 30° C.

[2] = Phase conversion of the amorphous form at room temperature
Excerpt: The phase transformation can be seen for example in a DSC measurement or under a hot stage microscope.

[3] = Formulation stability upon storage at 40° C. for one week (sedimentation, particle size, crystalline modification by DSC and PXRD); conditions: SC formulation
Experimental: The stability of the crystalline forms was tested by formulating form A or form B according to examples 1 and 2 and analyzing the formulation stability in the form of sedimentation, particle size growth and change in crystalline modification.
The obtained formulations were assessed for their stability upon storage at 40° C. for one week. Microscopic pictures of the formulation were taken before and after storage at 40° C. to examplify the change in particle size. Dispersion stability was assessed using a 2% dilution of the formulation in water in a conical cylinder. The sedimentation volume is recorded after 2 hours of standing. The sediment was collected and analysed using DSC and powder diffraction diffractometry to characterized the solid sediment (giving thus evidence of the sediment amount and crystalline modification present in the sedimentation).
This would in practice be very unfavourable and cause blocking of nozzle during the application and inhomogeneous distribution of the active ingredient into the formulation.

| Compound | Conversion of solid form in water suspension (XRD analysis) ([1]; after 1 day) | Conversion of solid form on standing [2] | Conversion of solid form in water suspension (XRD analysis) ([1]; after 2 days) | Phase transformation of the formulated active ingredient (DSC and PXRD) [3] |
| --- | --- | --- | --- | --- |
| Cn1cc(C(=O)Nc2ccccc2-c2cc(F)c(F)c(F)c2)c(C(F)F)n1 [amorphous form, 3-(Difluormethyl)-1-methyl-N-(3′,4′,5′-trifluor[1,1′-biphenyl]-2-yl)-1H-pyrazol-4-carboxamide] | converted (based on XRD analysis) into form B | converts at room temperature slowly to crystalline form A or typically to mixtures of form A and form B |  |  |
| Cn1cc(C(=O)Nc2ccccc2-c2cc(F)c(F)c(F)c2)c(C(F)F)n1 [form A, 3-(Difluormethyl)-1-methyl-N-(3′,4′,5′-trifluor[1,1′-biphenyl]-2-yl)-1H-pyrazol-4-carboxamide] |  |  | converted (based on XRD analysis) into form B | converted fully into needle like crystals of form B |
